Data from publication PMC4305287, “Two Novel α7 Nicotinic Acetylcholine Receptor Ligands: In Vitro Properties and Their Efficacy in Collagen-Induced Arthritis in Mice” (PLoS ONE, 2015).
Where “and” joins values, the source holds several entries; their conditions need not be identical. Equal entries are not always repeated.

How the values were obtained:
[1] = target: rat α7 nAChR (Rattus norvegicus, UniProt Q05941); experiment: cell-based; type: binding
Protocol: Binding studies with rat α7 nAChR were done using the rat pheochromocytoma cell line PC12 that endogenously expresses the α7 nAChR (American Type Culture Collection, Manassas, VA). PC12 cells were maintained in Ham F-12 nutrient mixture, containing 15% horse serum, 2.5% fetal bovine serum (FBS), 2 mM L-glutamine, 1.5 g/L NaHCO3, 100 units of penicillin, and 100 μg streptomycin.
For the binding assay, PC12 cells were resuspended in binding buffer (phosphate buffered saline with calcium and magnesium, containing 1% FBS and 0.02% NaN3) at 1.5 to 2.7 × 10^6 cells per ml and 55 μl (0.8–1.5 × 10^5 cells per well) was added to a 96-well, v-bottom plate. […]
Phycoerythrin-labeled streptavidin (streptavidin-PE) (Becton-Dickinson, Franklin Lakes, NJ) was diluted in binding buffer and 50 μl was added to the cells (excluding the cell control) at a 1.0 μg/ml final concentration. […] BTx binding was quantified by fluorescence-activated cell sorting (FACS) analysis. For each concentration of test compound, the displacement of BTx from the α7 nAChR was quantified by measuring the intensity of the fluorescent signal. […] Ki values were calculated from IC50 values using the Cheng-Prusoff equation: Ki=IC50/1+[BTx]/KD

[2] = target: T1, α1β1 nAChR (muscle receptor) (Homo sapiens, UniProt P02708+P07510+P11230+Q07001); experiment: α-bungarotoxin binding to TE671 cell membranes
T1 construct: host or cells: TE671 cell membranes
T1 sequence (P02708 21-457): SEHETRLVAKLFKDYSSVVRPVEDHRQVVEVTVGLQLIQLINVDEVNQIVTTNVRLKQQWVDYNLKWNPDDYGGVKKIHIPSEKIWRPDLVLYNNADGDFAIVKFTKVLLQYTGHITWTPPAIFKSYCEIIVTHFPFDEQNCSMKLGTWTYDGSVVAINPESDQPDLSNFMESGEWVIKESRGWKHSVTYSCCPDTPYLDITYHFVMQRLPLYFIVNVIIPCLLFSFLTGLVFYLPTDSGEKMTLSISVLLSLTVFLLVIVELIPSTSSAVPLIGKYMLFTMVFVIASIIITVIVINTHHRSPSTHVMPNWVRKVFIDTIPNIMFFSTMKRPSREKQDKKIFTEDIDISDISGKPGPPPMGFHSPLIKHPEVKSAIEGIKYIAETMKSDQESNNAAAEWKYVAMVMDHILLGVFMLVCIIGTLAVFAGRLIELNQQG
T1 sequence (Q07001 22-517): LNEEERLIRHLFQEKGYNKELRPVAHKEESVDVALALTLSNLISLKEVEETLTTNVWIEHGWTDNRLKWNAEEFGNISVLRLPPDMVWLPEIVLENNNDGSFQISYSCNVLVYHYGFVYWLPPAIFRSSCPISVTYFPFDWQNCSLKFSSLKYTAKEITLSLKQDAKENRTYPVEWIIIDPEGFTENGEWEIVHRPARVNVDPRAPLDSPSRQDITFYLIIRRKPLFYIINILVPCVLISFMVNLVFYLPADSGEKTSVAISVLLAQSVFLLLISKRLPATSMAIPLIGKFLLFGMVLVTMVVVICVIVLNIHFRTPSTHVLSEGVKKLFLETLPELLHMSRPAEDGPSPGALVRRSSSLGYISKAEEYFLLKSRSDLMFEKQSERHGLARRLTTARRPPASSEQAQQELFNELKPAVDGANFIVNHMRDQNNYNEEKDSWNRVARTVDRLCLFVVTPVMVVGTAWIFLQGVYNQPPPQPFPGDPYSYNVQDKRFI
T1 sequence (P07510 23-517): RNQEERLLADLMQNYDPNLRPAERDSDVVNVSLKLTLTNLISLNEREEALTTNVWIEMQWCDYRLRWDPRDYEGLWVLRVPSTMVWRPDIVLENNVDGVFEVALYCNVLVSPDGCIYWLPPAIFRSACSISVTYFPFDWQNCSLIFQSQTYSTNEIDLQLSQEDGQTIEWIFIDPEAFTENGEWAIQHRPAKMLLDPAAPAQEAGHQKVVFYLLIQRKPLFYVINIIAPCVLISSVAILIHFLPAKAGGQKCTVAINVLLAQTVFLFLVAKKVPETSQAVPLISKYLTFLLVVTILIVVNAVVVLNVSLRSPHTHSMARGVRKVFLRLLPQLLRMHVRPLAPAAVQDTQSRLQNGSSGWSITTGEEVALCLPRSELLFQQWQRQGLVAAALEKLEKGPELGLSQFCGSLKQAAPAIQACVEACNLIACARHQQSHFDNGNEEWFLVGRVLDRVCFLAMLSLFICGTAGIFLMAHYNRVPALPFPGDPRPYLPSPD
T1 sequence (P11230 24-501): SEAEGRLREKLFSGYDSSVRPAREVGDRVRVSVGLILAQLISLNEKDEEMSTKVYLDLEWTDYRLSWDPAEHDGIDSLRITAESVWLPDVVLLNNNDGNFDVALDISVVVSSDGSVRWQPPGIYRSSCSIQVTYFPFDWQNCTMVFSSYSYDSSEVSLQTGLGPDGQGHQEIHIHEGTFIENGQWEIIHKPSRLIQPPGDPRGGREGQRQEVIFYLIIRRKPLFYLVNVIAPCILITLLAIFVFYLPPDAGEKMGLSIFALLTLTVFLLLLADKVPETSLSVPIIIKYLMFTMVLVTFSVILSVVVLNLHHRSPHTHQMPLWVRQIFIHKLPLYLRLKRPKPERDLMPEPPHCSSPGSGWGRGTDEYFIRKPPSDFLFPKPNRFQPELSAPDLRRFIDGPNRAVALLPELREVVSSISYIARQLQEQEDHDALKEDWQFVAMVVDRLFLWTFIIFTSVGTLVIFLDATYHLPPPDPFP
Protocol: Broad selectivity was assessed at Cerep (Celle l’ Evescault, France), as described in the Cerep catalog, though the determination of the effect of PMP-311 and PMP-072 in in vitro radioligand receptor binding assays with 52 different receptors, channels, and transporters. The specific ligand binding to the receptors is defined as the difference between the total binding, and the nonspecific binding determined in the presence of an excess of unlabelled ligand. The results are expressed as a percent of control specific binding and as the mean percent inhibition of control specific binding obtained in the presence of 10 μM PMP-311 and PMP-072. Individual and mean values are presented in the results section. The IC50 values (concentration causing a half-maximal inhibition of control specific binding) and Hill coefficients (nH) were determined by non-linear regression as described above.

[3] = target: T2, human α7 nAChR (Homo sapiens, UniProt P36544); experiment: voltage-clamp electrophysiology in Xenopus oocytes; type: biochemical; details: for agonist activity at α7 nAChR ion channel: Xenopus oocyte membrane current, control conditions
T2 construct: expressed in transfected cells; host or cells: Xenopus laevis oocytes injected with cRNA; clones from Dr. Jon Lindstrom (α7) and Dr. Millet Treinin (RIC-3)
T2 sequence (P36544 23-502): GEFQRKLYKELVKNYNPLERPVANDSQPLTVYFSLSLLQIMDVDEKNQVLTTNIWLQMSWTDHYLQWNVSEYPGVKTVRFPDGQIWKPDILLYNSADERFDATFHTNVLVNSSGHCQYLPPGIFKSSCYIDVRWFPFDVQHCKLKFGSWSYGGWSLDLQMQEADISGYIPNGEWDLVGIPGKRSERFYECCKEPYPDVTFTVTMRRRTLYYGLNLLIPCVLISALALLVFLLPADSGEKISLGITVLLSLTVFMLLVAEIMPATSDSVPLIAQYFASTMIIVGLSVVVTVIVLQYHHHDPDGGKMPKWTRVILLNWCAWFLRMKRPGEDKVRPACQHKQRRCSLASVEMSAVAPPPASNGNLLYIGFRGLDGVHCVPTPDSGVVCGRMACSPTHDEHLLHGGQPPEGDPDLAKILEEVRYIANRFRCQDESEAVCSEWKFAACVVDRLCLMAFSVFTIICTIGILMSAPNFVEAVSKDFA
Protocol: Human nAChR receptor clones were obtained from Dr. Jon Lindstrom (University of Pennsylvania, Philadelphia, PA). The RIC-3 clone was obtained from Dr. Millet Treinin (Hebrew University, Jerusalem, Israel). Subsequent to linearization and purification of cloned cDNAs, RNA transcripts were prepared in vitro using the appropriate mMessage Machine kit from Ambion Inc. (Austin, TX).
The preparation of Xenopus laevis oocytes for RNA expression was conducted as previously described. Stage 5 oocytes were isolated and injected with […] (5–20 ng) of each subunit cRNAs. Recordings were conducted 2–5 days after injection. RNA coding for human α7 nAChR was routinely co-injected with the cDNA for human RIC-3, an accessory protein that improves and accelerates α7 nAChR expression without affecting the pharmacological properties of the receptors.
Experiments were conducted using OpusXpress6000A (Molecular Devices, Union City, CA) as described before. ACh applications were 12 seconds in duration.
Each oocyte received two initial control applications of 300 μM ACh, followed by the experimental drug application, and subsequent control application of 300 μM ACh, unless otherwise indicated. Responses to experimental drug applications were determined relative to the preceding ACh control responses in order to normalize the data, compensating for the varying levels of channel expression among the oocytes. Responses for α7 nAChR were calculated as net charge, since peak currents inaccurately report the agonist concentration dependence of α7 nAChR-mediated responses. For experiments measuring the effects of ACh and the experimental compounds on allosterically modulated receptors, following the acquisition of baseline responses, cells were given a 60 s application of 300 μM PNU-120596. […] For all experiments, means and standard error of the mean (SEM) were calculated from the normalized responses of at least four oocytes for each experimental concentration, plotted using Kaleidagraph 3.52 (Synergy Software, Reading, PA), and curves were generated from the Hill equation: Response=IMax[agonist]^n/[agonist]^n+(EC50)^n where Imax denotes the maximal response for a particular agonist/subunit combination, and n represents the Hill coefficient. Imax, n, and the EC50 were all unconstrained for the fitting procedures except in the case of the ACh concentration-response curves.

[4] = pharmacokinetics in CD1 mice; type: in vivo, mouse; details: for Kp at 30 min: CD1, mouse, brain, read-out: Brain penetration; for Kp at 30 min / Brain penetration: relative to plasma level 30 min after 1 mg/kg IV; for bioavailability: read-out: %F (bioavailability)
Protocol: Pharmacokinetic studies were carried out at Cerep using non-cannulated, non-fasted CD1 mice (Charles River Laboratories, Wilmington, MA). PMP-311 or PMP-072 were formulated in phosphate buffered saline (PBS), pH 7.4, as a clear solution and 1 mg/kg was administered by bolus intravenous (IV) injection or 5 mg/kg by oral gavage. Plasma samples were obtained from 3 mice per time point at 15, 30, 60, 120, 240, 360, 480 and 1440 min post-dose. The plasma samples were processed using acetonitrile precipitation and analyzed by HPLC-MS or HPLC-MS/MS to determine the concentration of drug as compared to a plasma calibration curve (aliquots of drug-free plasma were spiked with the test compound at the specified concentration levels and processed together with the unknown plasma samples using the same procedure). The processed plasma samples were stored frozen (−20°C) until the HPLC-MS/MS analysis. Peak areas were recorded, and the concentrations of the test compound in the unknown plasma samples were determined using the respective calibration curve. The reportable linear range of the assay was determined, along with the lower limit of quantitation (LLQ).
Plots of plasma concentration of compound versus time were constructed. The fundamental pharmacokinetic parameters of compound after oral and IV dosing (Cmax: maximum concentration, Tmax: time to maximum concentration, T1/2: terminal elimination half-life, AUC: area under the curve, CI: clearance, Vd: volume of distribution, and %F: bioavailability) were obtained from the non-compartmental analysis of the plasma data using WinNonlin (Pharsight, St. Louis, MO).

[5] = CD1, plasma, mouse, 5 mg/kg oral

rat α7 nAChR, sequence (Q05941 23-502): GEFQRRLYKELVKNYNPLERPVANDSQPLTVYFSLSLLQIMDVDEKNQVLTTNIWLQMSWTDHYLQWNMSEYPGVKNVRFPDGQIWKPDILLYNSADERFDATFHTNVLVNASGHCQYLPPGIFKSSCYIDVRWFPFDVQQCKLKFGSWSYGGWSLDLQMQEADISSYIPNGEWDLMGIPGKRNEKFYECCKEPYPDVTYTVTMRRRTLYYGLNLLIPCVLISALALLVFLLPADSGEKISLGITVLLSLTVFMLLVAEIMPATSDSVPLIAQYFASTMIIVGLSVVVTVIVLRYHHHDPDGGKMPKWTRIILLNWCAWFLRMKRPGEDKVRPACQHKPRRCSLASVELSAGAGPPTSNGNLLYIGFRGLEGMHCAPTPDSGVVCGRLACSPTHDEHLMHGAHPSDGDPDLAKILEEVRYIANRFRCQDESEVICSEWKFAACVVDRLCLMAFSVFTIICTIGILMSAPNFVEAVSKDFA

Structure (SMILES)	Ki [1]	Ki [2]	agonist activity at α7 nAChR ion channel [3]	IC50 ([3]; co-applied with 60 μM ACh, read-out: IC50, antagonism of ACh-stimulated α7 nAChR channel activity)	Kp at 30 min [4]	Vd ([4]; CD1, plasma, mouse, 1 mg/kg IV)	half-life ([4]; CD1, plasma, mouse, 1 mg/kg IV)	AUC [4, 5]	Cmax [4, 5]	Tmax [4, 5]	bioavailability [4, 5]	Cl ([4]; mouse, 1 mg/kg IV)	T1/2 ([4]; mouse, 5 mg/kg oral)	Brain penetration [4]	EC50 ([3]; Xenopus oocytes, read-out: EC50 of α7 nAChR activation)	Emax ([3]; net charge, normalized to 300 μM ACh, read-out: maximum response compared to ACh)	clearance ([4]; CD1, plasma, mouse, 1 mg/kg IV)	half-life [4, 5]
COc1ccc(NC(=O)N2CCNC[C@@H]2COc2cccnc2)cc1 [PMP-072, (R)-N-(4-methoxyphenyl)-2-((pyridin-3-yloxy)methyl)piperazine-1-carboxamide]	6.9 ± 1.4 nM	> 100000 nM	did not appear to be an agonist	20 to 50 nM	0.06	5.83 L/kg	39 min	588 ng·h/mL	324 ng/mL and 940 nM	30 min	76%	103 mL/min/kg	104 min	6%				
c1cncc(OC[C@@H]2CNCCN2c2nc3ncccc3o2)c1 [PMP-311, (S)-2-(2-((Pyridin-3-yloxy)methyl)piperazin-1-yl)oxazolo[4,5-b]pyridine]	0.9 ± 0.2 nM	> 100000 nM	elicited a typical inward current		0.44	1.94 L/kg	19 min	567 ng·h/mL	787 ng/mL and 2.5 µM	15 min	50%			44%	~200 nM	~85%	72 mL/min/kg	98 min
